Tests used:
Concord grapevines = experiment: Repeated spray of potted Concord grapevines during the bud break period; assay type: in vivo; conditions: for Average number of broken buds per vine: 1000 ppm in 0.05% Silwet L77, repeated spray
Experimental: A study was conducted to determine the effect of spraying Concord grapevines with ABA or ABA analog PBI-429 during bud break. Potted concord grapevines were placed in greenhouse conditions to promote bud break and the vines were repeatedly sprayed with ABA or ABA analog solutions. The vines were sprayed 2, 4, 8, 12 and 14 days after exposure of the vines into bud break promoting temperatures. Bud break was rated 6, 7, 8, 11, 12, 13, 14, 15, 19 and 20 days after vines were placed in warm bud break promoting conditions.

perennial plant = experiment: Applicants' field studies over several years on perennial plant bud break; assay type: in vivo; conditions: even at high levels, at every application time
From the text: In order to determine the role ABA had on perennial plant bud break, Applicants conducted field studies for several years. After many experiments.

## (S)-5-(1-hydroxy-2,6,6)-trimethyl-4-oxo-2-cyclohexen-1-yl)-3-methyl-(2 Z,4E)-pentadienoic acid [ABA]
Concord grapevines; 6 days after warming
  Average number of broken buds per vine: 0.2
Concord grapevines; 7 days after warming
  Average number of broken buds per vine: 0.2
Concord grapevines; 8 days after warming
  Average number of broken buds per vine: 0.8
Concord grapevines; 11 days after warming
  Average number of broken buds per vine: 2.8
Concord grapevines; 12 days after warming
  Average number of broken buds per vine: 3.2
Concord grapevines; 13 days after warming
  Average number of broken buds per vine: 3.8
Concord grapevines; 14 days after warming
  Average number of broken buds per vine: 4.8
Concord grapevines; 15 days after warming
  Average number of broken buds per vine: 5.3
Concord grapevines; 19 days after warming
  Average number of broken buds per vine: 7.0
Concord grapevines; 20 days after warming
  Average number of broken buds per vine: 7.0
Concord grapevines; repeated spray application during the bud break period
  Effect on average number of broken buds over time: not significantly impacted
Perennial plant
  Effect on bud break: no appreciable effect on bud break

From patent publication US20130072385A1, “METHODS FOR DELAYING BUD BREAK BY APPLYING ABA ANALOGS” (priority 2011, published 2013)
